Test results reported in paper PMC8620791, “Inhibitory Effects of Sulfonamide Derivatives on the β-Carbonic Anhydrase (MpaCA) from Malassezia pachydermatis, a Commensal, Pathogenic Fungus Present in Domestic Animals” (International Journal of Molecular Sciences, 2021).

What was measured:
MreCA = biological target: MreCA; design: method as in PMID 31963335; settings: stopped-flow CO2 hydration; given for comparison; ref [26]; cited from earlier work
MgCA = biological target: MgCA; design: method as in PMID 31963335; settings: stopped-flow CO2 hydration; given for comparison; ref [26]; cited from earlier work
[1] = biological target: T1, β-CA (MpaCA) from Malassezia pachydermatis (Malassezia pachydermatis, UniProt A0A0M8MPA4); assay: biochemical; settings: recombinant enzyme, stopped-flow CO2 hydration, mean from three assays, errors ±5–10%, 15 min preincubation
T1 sequence (A0A0M8MPA4 1-242): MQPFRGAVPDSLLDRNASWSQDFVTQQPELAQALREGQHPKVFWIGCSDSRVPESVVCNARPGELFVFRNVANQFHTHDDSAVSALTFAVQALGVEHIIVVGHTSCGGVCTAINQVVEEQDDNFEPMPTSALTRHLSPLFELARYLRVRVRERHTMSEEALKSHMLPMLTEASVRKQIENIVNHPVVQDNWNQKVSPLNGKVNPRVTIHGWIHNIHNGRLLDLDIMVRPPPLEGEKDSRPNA
Protocol: An applied photophysics stopped-flow instrument was used for assaying the CA-catalyzed CO2 hydration activity [49].
At least six measurements of the original 5–10% reaction were used to assess the initial velocity for each inhibitor. The uncatalyzed rates were identically determined and detracted from the total observed rates. Stock inhibitor solutions (10–100 mM) were prepared in distilled, deionized water, and dilutions up to 0.01 mM were performed with the buffer test. […] The inhibition constants, which represent the mean from at least three different determinations, were obtained by the non-linear least-squares methods using PRISM 6 and the Cheng–Prusoff equation, as reported earlier [50]. […] All salts/small molecules were of the highest purity available from Sigma-Aldrich (Milan, Italy).

| Compound | Ki (MreCA) [µM] | Ki (MgCA) [µM] | Ki [1] [µM] |
| --- | --- | --- | --- |
| CCN[C@H]1CN(CCCOC)S(=O)(=O)c2sc(S(N)(=O)=O)cc21 [BRZ, Brinzolamide, reference compound] | 0.7 | > 10 | 0.55 |
| NS(=O)(=O)c1nnc(NS(=O)(=O)c2ccccc2)s1 [BZA, Benzolamide, reference compound] | 7.15 | – | 0.12 |
| Cc1ccc(-c2cc(C(F)(F)F)nn2-c2ccc(S(N)(=O)=O)cc2)cc1 [CLX, Celecoxib, reference compound] | 1.4 | > 10 | 0.06 |
| NS(=O)(=O)c1cc(Cl)c(Cl)c(S(N)(=O)=O)c1 [DCP, Dichlorophenamide, reference compound] | 3.06 | 0.34 | – |
| NS(=O)(=O)NCCNc1nonc1C(=NO)Nc1ccc(F)c(Br)c1 [EPA, Epacadostat, reference compound] | – | – | 0.63 |
| NC(N)=Nc1nc(CSCCC(N)=NS(N)(=O)=O)cs1 [FAM, Famotidine, reference compound] | – | – | 4.91 |
| NS(=O)(=O)c1cc2c(cc1Cl)NCNS2(=O)=O [HCT, Hydrochlorothiazide, reference compound] | 8.5 | – | 0.26 |
| NS(=O)(=O)c1ccc(S(=O)(=O)Nc2cccc3c(Cl)c[nH]c23)cc1 [IND, Indisulam E7070, reference compound] | < 1 | – | 4.82 |
| CC(=O)/N=c1/sc(S(N)(=O)=O)nn1C [MZA, Methazolamide, reference compound] | – | – | 1.72 |
| O=C1NS(=O)(=O)c2ccccc21 [SAC, Saccharin, reference compound] | – | – | 1.03 |
| CCN1CCCC1CNC(=O)c1cc(S(N)(=O)=O)ccc1OC (stereo not drawn) [SLP, Sulpiride, reference compound] | 4.85 | – | – |
| NS(=O)(=O)c1ccc(N2CCCCS2(=O)=O)cc1 [SLT, Sulthiame, reference compound] | 0.67 | – | 1.88 |
| CC1(C)O[C@@H]2[C@@H](CO[C@@]3(COS(N)(=O)=O)OC(C)(C)O[C@@H]23)O1 [TPM, Topiramate, reference compound] | 3.83 | 1.46 | 0.48 |
| Cc1onc(-c2ccccc2)c1-c1ccc(S(N)(=O)=O)cc1 [VLX, Valdecoxib, reference compound] | 0.77 | – | 0.63 |
| NS(=O)(=O)Cc1noc2ccccc12 [ZNS, Zonisamide, reference compound] | – | – | 2.42 |
| Nc1cccc(S(N)(=O)=O)c1 [compound 1] | – | – | 1.99 |
| Nc1ccc(S(N)(=O)=O)cc1 [compound 2] | 4.62 | 0.24 | – |
| NS(=O)(=O)c1cccc(S(N)(=O)=O)c1 [compound 3] | > 10 | 0.15 | 1.5 |
| Cc1ccc(S(N)(=O)=O)cc1 [compound 4] | – | – | 1.09 |
| NCc1ccc(S(N)(=O)=O)cc1 [compound 5] | > 10 | – | 2.18 |

| Compound | Ki (MreCA) [µM] | Ki (MgCA) [µM] | Ki [1] [µM] |
| --- | --- | --- | --- |
| NCCc1ccc(S(N)(=O)=O)cc1 [compound 6] | > 10 | – | – |
| Nc1ccc(S(N)(=O)=O)cc1F [compound 7] | 4.59 | 0.11 | 2.48 |
| Nc1ccc(S(N)(=O)=O)cc1Cl [compound 8] | > 10 | 0.12 | 1.68 |
| Nc1ccc(S(N)(=O)=O)cc1Br [compound 9] | > 10 | 0.34 | – |
| NS(=O)(=O)c1cc(Cl)cc(Cl)c1O [compound 10] | > 10 | 0.54 | 2.01 |
| Nc1cc(C(F)(F)F)c(S(N)(=O)=O)cc1S(N)(=O)=O [compound 11] | 6.76 | – | – |
| Nc1cc(Cl)c(S(N)(=O)=O)cc1S(N)(=O)=O [compound 12] | > 10 | – | 2.74 |
| Nc1nnc(S(N)(=O)=O)s1 [compound 13] | – | – | 1.09 |
| Cn1nc(S(N)(=O)=O)sc1=N [compound 14] | > 10 | > 10 | 0.58 |
| NS(=O)(=O)c1ccc(O)cc1 [compound 15] | > 10 | 0.23 | 0.61 |
| NS(=O)(=O)c1ccc(CO)cc1 [compound 16] | 6.51 | 0.1 | 1.06 |
| NS(=O)(=O)c1ccc(CCO)cc1 [compound 17] | > 10 | 0.06 | – |
| NS(=O)(=O)c1ccc(C(=O)O)cc1 [compound 18] | > 10 | 0.06 | – |
| Nc1nccc(Nc2ccc(S(N)(=O)=O)cc2)n1 [compound 19] | 7.79 | > 10 | 0.59 |
| Nc1ccc(S(=O)(=O)Nc2nnc(S(N)(=O)=O)s2)cc1 [compound 20] | 0.91 | 0.23 | 0.61 |
| NS(=O)(=O)c1ccc(CCNS(=O)(=O)c2ccc([N+](=O)[O-])cc2CO)cc1 [compound 21] | 7.4 | 0.11 | 0.27 |
| Nc1ccc(S(=O)(=O)Nc2ccc(S(N)(=O)=O)cc2)cc1 [compound 22] | 3.74 | 0.09 | 1.37 |
| Nc1ccc(S(=O)(=O)NCc2ccc(S(N)(=O)=O)cc2)cc1 [compound 23] | > 10 | > 10 | 0.26 |
| Nc1ccc(S(=O)(=O)NCCc2ccc(S(N)(=O)=O)cc2)cc1 [compound 24] | – | – | 1.27 |
